Here are results for 13 compounds from PMC11678237 (2024).

For assay [1], the system named is poly(dA)•2poly(dT) (DNA, polymer) A/T. In words: UV melting, 260 nm. The following applies: pH 7.0; for ΔTm3→2 / binding: 150 mM KCl, 10 mM sodium cacodylate; for ΔTm3→2: per base.
Assay [2] has as its system DNA3 (DNA, triplex) GAAAAAAAAAAAAAGTTTTCTTTTTTTTTTTTCTTTTCTTTTTTTTTTTTTC
Put plainly: ITC. The following applies: 100 mM NaCl, 10 mM sodium cacodylate, pH 7.0, 15 °C; for Kd: independent model.

In assay [3] the test system is DNA1/DNA2/TFO1 triplex (DNA, triplex) ATGGCAAAAAAAAGGAGAAGCTGACCACCTGACTA/TAGTCAGGTGGTCAGCTTCTCCTTTTTTTTGCCAT/CTTTCTTTTTTTTTCCTCTTC
In words: native PAGE gel shift. The following applies: none added; 90 mM Tris–acetate, pH 5.0; 1 to 100 μM compound; triplex formation promoted.

In assay [4] the test system is DNA3 (DNA, triplex) GAAAAAAAAAAAAAGTTTTCTTTTTTTTTTTTCTTTTCTTTTTTTTTTTTTC
In words: CD titration. The settings on record: 100 mM NaCl; 10 mM sodium cacodylate, pH 7.0, 15 °C; 0 to 50 μM compound.

Assay [5] has as its system poly(dA)•2poly(dT) (DNA, polymer) A/T. Put plainly: viscosity. The settings on record: 150 mM KCl; 10 mM sodium cacodylate, pH 7.0, room temperature; intercalation.
Assay [6] relates to DNA4 (DNA, hairpin) GAAAAAAAAAAAAAGTTTTCTTTTTTTTTTTTTC
Put plainly: CD titration. The settings on record: 100 mM NaCl; 10 mM sodium cacodylate, pH 7.0, 15 °C; 0 to 50 μM compound.

Assay [7] concerns poly(dA)•poly(dT) (DNA, polymer) A/T. In words: UV melting. The following applies: 150 mM KCl; 10 mM sodium cacodylate, pH 7.0; 10 μM compound; Tm2→1 stays near 72 °C.
Assay [8] has as its system DNA4 (DNA, hairpin) GAAAAAAAAAAAAAGTTTTCTTTTTTTTTTTTTC
Put plainly: ITC. The settings on record: 100 mM NaCl; 10 mM sodium cacodylate, pH 7.0, 15 °C; 100 μM ligand titrant; heat of dilution only.

Where [9] appears, read: 10 μM compound, 15 μM base triplet.
Where [10] appears, read: 10 mM lithium cacodylate, no added salt, 10 μM compound, Tm not shift, no triplex without ligand, duplex Tm 58 °C.

Regarding `CCCN(CCC)CCCOc1cccc2oc(-c3ccccc3)cc(=O)c12`, in assay [1] (setting [9]), the ΔTm3→2 turned out to be 23.8 °C.

`CC(C)CCCOc1cccc2oc(-c3ccccc3)cc(=O)c12`: the binding result in assay [1] (setting [9]) is on record as “no”. Take `CN1CCN(CCCOc2cccc3oc(-c4ccccc4)cc(=O)c23)CC1`: the ΔTm3→2 in assay [1] (setting [9]) turned out to be 25.7 °C. For the compound `O=c1cc(-c2ccccc2)oc2cccc(OCCCCN3CCCCC3)c12`, in assay [2], the Kd is 3.08 ± 1.26 × 10^-5 M. Also, the Tm3→2 in assay [1] (setting [10]) worked out at 40 °C. Besides, the ΔTm3→2 in assay [1] (setting [9]) was determined as 12.1 °C. For `NC[C@@H]1O[C@H](O[C@H]2[C@@H](O)[C@H](O[C@@H]3[C@@H](O)[C@H](N)C[C@H](N)[C@H]3O[C@H]3O[C@H](CN)[C@@H](O)[C@H](O)[C@H]3N)O[C@@H]2CO)[C@H](N)[C@@H](O)[C@@H]1O`, in assay [1] (0 to 20 μM compound, no effect at 0.5 μM), the binding entry is on record as “yes”. Take `NCCCOc1cccc2oc(-c3ccccc3)cc(=O)c12`: the ΔTm3→2 in assay [1] (setting [9]) was found to be 23.2 °C. The same measure, in the same setting: the figure for `CCN(CC)CCCOc1cccc2oc(-c3ccccc3)cc(=O)c12` is 24.4 °C. For the compound `O=c1cc(-c2ccccc2)oc2cccc(OCCCN3CCCC3)c12`, the ΔTm3→2 in assay [1] (setting [9]) was found to be 19.4 °C. On the same count and under the same terms, as for `O=c1cc(-c2ccccc2)oc2cccc(OCCCO)c12`, the figure is 5.4 °C. Take `O=c1cc(-c2ccccc2)oc2cccc(OCCN3CCCCC3)c12`: in assay [2], the Kd is reported as 2.10 ± 1.12 × 10^-5 M. For the same compound, in assay [1] (setting [10]), the Tm3→2 came out at 55 °C. The ΔTm3→2 in assay [1] (setting [9]) is 22.6 °C. For `O=c1cc(-c2ccccc2)oc2cccc(OCCCN3CCCCC3)c12`, the binding entry is “yes” in assay [3]; “yes” in assay [4]; “yes” in assay [5]; “no” in assay [6]; “no” in assay [7]; “no” in assay [8]. The Kd in assay [2] is reported as 1.01 ± 0.20 × 10^-5 M. The Tm3→1 in assay [1] (setting [10]) amounted to 60.7 °C. `O=c1cc(-c2ccccc2)oc2cccc(O)c12`: the binding result in assay [2] (100 μM ligand titrant, heat of dilution only) is reported as “no”; in assay [1] (setting [9]), “weak”. As for `O=c1cc(-c2ccccc2)oc2cccc(OCCCN3CCOCC3)c12`, the ΔTm3→2 in assay [1] (setting [9]) turned out to be 26.7 °C.
